EP0745595A1, “3-(3-Aryloxyphenyl)-1-(substituted methyl)-s-triazine-2,4,6-oxo or thiotrione herbicidal agents” (American Cyanamid Company, priority 1995, dated 1996)

Columns and labels:
Assay type in all cases: in vivo
GALIUM APARINE = assay: Postemergence herbicidal evaluation, GALAP (Galium); set-up: key to GALAP rating / Herbicidal effect rating, GALAP / GALAP: 0-9 visual rating scale vs untreated control
Method: (§1) In the tests, seedling plants are grown in jiffy flats for about two weeks. The test compounds are dispersed in 50/50 acetone/water mixtures containing 0.5% TWEEN®20, a polyoxyethylene sorbitan monolaurate surfactant of Atlas Chemical Industries, in sufficient quantities to provide the equivalent of about 0.125 kg to 0.500 kg per hectare of active compound when applied to the plants through a spray nozzle operating at 40 psi for a predetermined time. After spraying, the plants are placed on greenhouse benches and are cared for in the usual manner, commensurate with conventional greenhouse practices. From four to five weeks after treatment, the seedling plants are examined and rated according to the rating system set forth below. Where more than one test is involved for a given compound, the data are averaged.
(§2) Plant species employed in these evaluations are reported by header abbreviation, common name and scientific name.
(§3) Results of herbicide evaluation are expressed on a rating scale (0-9). The scale is based upon a visual observation of plant stand, vigor, malformation, size, chlorosis and overall plant appearance as compared with a control.

CYPERUS IRIA = assay: Preemergence weed control under flooded paddy conditions, CYPIR (Rice Flatsedge); conditions: 0.500 kg/ha, preemergence, 3-4 weeks after treatment
Method: as §3
(§4) Preemergence herbicidal activity under flooded paddy conditions is determined as follows: plant seeds or propagating organs are planted in the top 0.5 cm of silt loam soil in 32 oz. plastic containers with a diameter of 10.5 cm and no drainage holes. Water is added to these containers and maintained at 1.5 to 3 cm above the soil surface for the duration of the experiment. […] The treated containers are placed on greenhouse benches and cared for according to normal greenhouse procedures.- Three to four weeks after treatment the test is terminated and each container is examined and herbicidal effect rated according to the rating system provided in Example 40. The compounds evaluated are reported by compound number given in Example 40.
(§5) Plant species employed in this example are reported by header abbreviation, common name and scientific name.

[1] = test system: SETARIA VIRIDIS, (L) BEAU; assay: Postemergence herbicidal evaluation, SETVI (Foxtail, Green); set-up: key to SETVI rating / Herbicidal effect rating, SETVI / SETVI: 0-9 visual rating scale vs untreated control
Method: as §1, §2, §3

[2] = test system: CYPERUS SEROTINUS, ROTTB.; assay: Preemergence weed control under flooded paddy conditions, CYPSE (Flatsedge); conditions: 0.500 kg/ha, preemergence, 3-4 weeks after treatment
Method: as §3, §4, §5

[3] = test system: ECHINOCHLOA ORYZOIDES (ARD.)FRITSCH; assay: Preemergence weed control under flooded paddy conditions, ECHORC (Watergrass (Calif.)); conditions: 0.500 kg/ha, preemergence, 3-4 weeks after treatment
Method: as §3, §4, §5

IPOMOEA SPP. = assay: Postemergence herbicidal evaluation, IPOSS (Morningglory spp.)
Method in brief: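 Seedlings of morningglory (Ipomoea spp.) were raised in jiffy flats for roughly two weeks. They were then sprayed postemergence through a nozzle at 40 psi with test compound dispersed in 50/50 acetone/water containing 0.5% TWEEN®20 surfactant. Plants were kept on greenhouse benches under standard care and visually rated 0-9 against controls four to five weeks after treatment.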

[4] = test system: ORYZA SATIVA, L. TEBONNET; assay: Rice tolerance to post-transplant applications under flooded paddy conditions, ORYSAT (Rice, Tebonnet); conditions: 0.500 kg/ha, post-transplant rice, 3-4 weeks after treatment
Method in brief: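 Two ten-day-old Tebonnet rice seedlings transplanted into silt loam, flooded 1.5–3 cm; three days later the water surface treated with compounds in acetone/water at about 0.5, 0.25, 0.125 and 0.063 kg/ha. Visual 0–9 injury rating versus control after 3–4 weeks in greenhouse.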

CHENOPODIUM ALBUM, L. = assay: Postemergence herbicidal evaluation, CHEAL (Lambsquarters, Common)
Method in brief: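 Seedlings of common lambsquarters (Chenopodium album) were raised in jiffy flats for roughly two weeks, then sprayed postemergence through a nozzle at 40 psi with test compound dispersed in 50/50 acetone/water containing 0.5% TWEEN®20 surfactant. Plants were kept on greenhouse benches under standard care and rated visually on a 0-9 scale versus controls.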

[…], PRESL. = Preemergence weed control under flooded paddy conditions, MOOVA (Monochoria); conditions: 0.500 kg/ha, preemergence, 3-4 weeks after treatment
Method: as §3
Preemergence herbicidal activity under flooded paddy conditions is determined as follows: plant seeds or propagating organs are planted in the top 0.5 cm of silt loam soil in 32 oz. plastic containers with a diameter of 10.5 cm and no drainage holes. Water is added to these containers and maintained at 1.5 to 3 cm above the soil surface for the duration of the experiment. The test compounds are applied as aqueous/acetone mixtures 50/50 v/v pipetted directly into the flood water to give the equivalent of about 0.5, 0.25, 0.125 and 0.063 kg/ha of active ingredient. The treated containers are placed on greenhouse benches and cared for according to normal greenhouse procedures.- Three to four weeks after treatment the test is terminated and each container is examined and herbicidal effect rated according to the rating system provided in Example 40. The compounds evaluated are reported by compound number given in Example 40.
as §5

[5] = test system: AMBROSIA ARTEMISIIFOLIA, L.; assay: Postemergence herbicidal evaluation, AMBEL (Ragweed, Common)
Method in brief: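 Common ragweed (Ambrosia artemisiifolia) seedlings were raised in jiffy flats for roughly two weeks, then sprayed postemergence through a nozzle at 40 psi with the test compound dispersed in 50/50 acetone/water carrying 0.5% TWEEN®20. The plants were kept on greenhouse benches under conventional care. Four to five weeks later, injury was rated visually on a 0-9 scale, and repeat tests were averaged.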

[6] = test system: ABUTILON THEOPHRASTI, MEDIC.; assay: Postemergence herbicidal evaluation, ABUTH (Velvetleaf)
Method in brief: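 Velvetleaf (Abutilon theophrasti) seedlings were raised in jiffy flats for about two weeks and then sprayed postemergence. The test compound was dispersed in a 50/50 acetone/water mixture containing 0.5% TWEEN®20 and applied through a nozzle operating at 40 psi. Plants were kept on greenhouse benches and rated 0-9 four to five weeks after treatment.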

SAGITTARIA PYGMAEA, L. = assay: Preemergence weed control under flooded paddy conditions, SAGPY (Arrowhead (Pygmaea)); conditions: 0.500 kg/ha, preemergence, 3-4 weeks after treatment
Method: as §3, §4, §5

CASSIA OBTUSIFOLIA, L. = assay: Postemergence herbicidal evaluation, CASOB (Sicklepod); set-up: key to CASOB rating / Herbicidal effect rating, CASOB / CASOB: 0-9 visual rating scale vs untreated control
Method in brief: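 Seedlings about two weeks old were sprayed with compound in 50/50 acetone/water containing 0.5% Tween 20 at about 0.125-0.500 kg/ha and kept in the greenhouse. Visual injury was rated on a 0-9 scale versus control 4-5 weeks after treatment; repeat tests were averaged.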

[7] = test system: GLYCINE MAX(L) MERR. CV. WILLIAMS; assay: Postemergence herbicidal evaluation, GLXMAW (Soybean, Williams); set-up: key to GLXMAW rating / Herbicidal effect rating, GLXMAW / GLXMAW: 0-9 visual rating scale vs untreated control
Method: as §1, §2, §3

[8] = test system: ECHINOCHLOA CRUS-GALLI, (L) BEAU; assay: Postemergence herbicidal evaluation, ECHCG (Barnyardgrass); set-up: key to ECHCG rating / Herbicidal effect rating, ECHCG / ECHCG: 0-9 visual rating scale vs untreated control
Method: as §1, §2, §3

[9] = test system: ORYZA SATIVA, L. TEBONNET; assay: Postemergence herbicidal evaluation, ORYSAT (Rice, Tebonnet); set-up: key: 0-9 visual rating scale vs untreated control
Method: as §1, §2, §3

[10] = test system: GLYCINE MAX(L) MERR. CV. WILLIAMS; assay: Preemergence herbicidal evaluation, GLXMAW (Soybean, Williams); conditions: rated four to five weeks after treatment
Source text: as §3
(§6) The preemergence herbicidal activity of the test compounds of the present invention is exemplified by the following tests in which the seeds of a variety of monocotyledonous and dicotyledonous plants are separately mixed with potting soil and planted on top of approximately one inch of soil in separate pint cups. […] The treated cups are then placed on greenhouse benches, watered and cared for in accordance with conventional greenhouse procedures. From four to five weeks after treatment, the tests are terminated and each cup is examined and rated according to the rating system provided in Example 40.
(§7) The compounds evaluated are reported by compound number given in Example 40.

[11] = test system: ECHINOCHLOA CRUS-GALLI, (L) BEAU; assay: Preemergence herbicidal evaluation, ECHCG (Barnyardgrass); conditions: rated four to five weeks after treatment
Source text: as §3, §6, §7

Compound: COC(=O)Cn1c(=O)n(C)c(=O)n(-c2cc(Oc3cc(Cl)cc(Cl)c3Cl)ccc2[N+](=O)[O-])c1=O [Compound 25, Methyl 3-[2-nitro-5-(2,3,5-trichloro-phenoxy)phenyl]tetrahydro-5-methyl-2,4,6-trioxo-s-triazine-1(2H)-acetate]
- GALAP rating (GALIUM APARINE; Rate 0.125 kg/ha): 0.0
- GALAP rating (GALIUM APARINE; Rate 0.250 kg/ha): 0.0
- GALAP rating (GALIUM APARINE; Rate 0.500 kg/ha): 0.0
- Herbicidal effect rating, CYPIR (CYPERUS IRIA): 0.0
- SETVI rating ([1]; Rate 0.125 kg/ha): 0.0
- SETVI rating ([1]; Rate 0.250 kg/ha): 0.0
- SETVI rating ([1]; Rate 0.500 kg/ha): 0.0
- Herbicidal effect rating, CYPSE [2]: 0.0
- Herbicidal effect rating, ECHORC [3]: 0.0
- IPOSS rating (IPOMOEA SPP.; Rate 0.125 kg/ha): 0.0
- IPOSS rating (IPOMOEA SPP.; Rate 0.250 kg/ha): 0.0
- IPOSS rating (IPOMOEA SPP.; Rate 0.500 kg/ha): 0.0
- Herbicidal effect rating, ORYSAT [4]: 0.0
- CHEAL rating (CHENOPODIUM ALBUM, L.; Rate 0.125 kg/ha): 0.0
- CHEAL rating (CHENOPODIUM ALBUM, L.; Rate 0.250 kg/ha): 0.0
- CHEAL rating (CHENOPODIUM ALBUM, L.; Rate 0.500 kg/ha): 0.0
- Herbicidal effect rating, MOOVA ([…], PRESL.): 0.0
- AMBEL rating ([5]; Rate 0.125 kg/ha): 0.0
- AMBEL rating ([5]; Rate 0.250 kg/ha): 0.0
- AMBEL rating ([5]; Rate 0.500 kg/ha): 0.0
- ABUTH rating ([6]; Rate 0.125 kg/ha): 0.0
- ABUTH rating ([6]; Rate 0.250 kg/ha): 0.0
- ABUTH rating ([6]; Rate 0.500 kg/ha): 0.0
- Herbicidal effect rating, SAGPY (SAGITTARIA PYGMAEA, L.): 0.0
- CASOB rating (CASSIA OBTUSIFOLIA, L.; Rate 0.125 kg/ha): 0.0
- CASOB rating (CASSIA OBTUSIFOLIA, L.; Rate 0.250 kg/ha): 0.0
- CASOB rating (CASSIA OBTUSIFOLIA, L.; Rate 0.500 kg/ha): 0.0
- GLXMAW rating ([7]; Rate 0.125 kg/ha): 0.0
- GLXMAW rating ([7]; Rate 0.250 kg/ha): 0.0
- GLXMAW rating ([7]; Rate 0.500 kg/ha): 0.0
- ECHCG rating ([8]; Rate 0.125 kg/ha): 0.0
- ECHCG rating ([8]; Rate 0.250 kg/ha): 0.0
- ECHCG rating ([8]; Rate 0.500 kg/ha): 0.0

Compound: COC(=O)Cn1c(=O)n(C)c(=O)n(-c2cc(Oc3cc(F)c(F)cc3F)ccc2[N+](=O)[O-])c1=O [Compound 30]
- Herbicidal effect rating, CYPIR (CYPERUS IRIA): 0.0
- Herbicidal effect rating, CYPSE [2]: 0.0
- Herbicidal effect rating, ECHORC [3]: 0.0
- ORYSAT rating ([9]; Rate 0.125 kg/ha): 3.0
- ORYSAT rating ([9]; Rate 0.250 kg/ha): 3.0
- ORYSAT rating ([9]; Rate 0.500 kg/ha): 3.0
- Herbicidal effect rating, ORYSAT [4]: 1.0
- Herbicidal effect rating, MOOVA ([…], PRESL.): 0.0
- Herbicidal effect rating, SAGPY (SAGITTARIA PYGMAEA, L.): 0.0

Compound: COC(=O)Cn1c(=O)n(C)c(=O)n(-c2cc(Oc3cc(OC)c(Cl)cc3Cl)ccc2[N+](=O)[O-])c1=O [Compound 29, Methyl 3-[5-(2,4-dichloro-5-methoxyphenoxy)-2-nitrophenyl]tetrahydro-5-methyl-2,4,6-trioxo-s-triazine-1(2H)-acetate]
- GLXMAW herbicidal rating ([10]; Rate 0.125 kg/ha): 0.0
- GLXMAW herbicidal rating ([10]; Rate 0.250 kg/ha): 0.0
- GLXMAW herbicidal rating ([10]; Rate 0.500 kg/ha): 0.0
- ECHCG herbicidal rating ([11]; Rate 0.125 kg/ha): 0.0
- ECHCG herbicidal rating ([11]; Rate 0.250 kg/ha): 0.0
- ECHCG herbicidal rating ([11]; Rate 0.500 kg/ha): 0.0
- Herbicidal effect rating, CYPIR (CYPERUS IRIA): 0.0
- Herbicidal effect rating, CYPSE [2]: 0.0
- Herbicidal effect rating, ECHORC [3]: 0.0
- Herbicidal effect rating, ORYSAT [4]: 0.0
- Herbicidal effect rating, MOOVA ([…], PRESL.): 0.0
- Herbicidal effect rating, SAGPY (SAGITTARIA PYGMAEA, L.): 0.0
